# Several values for one entry are separate records, joined by “and”; a condition that tells them apart may be missing. Equal values may be shown once. Entries after “also recorded” stand apart in the source; their conditions may differ. Positions of bridges follow the written chain, without caps; N, C: chain ends. Non-standard residues stand in square brackets, D forms with d. Residues, ends and D or L forms follow the SMILES beside them. *: point of attachment. Ahp = NCCCCCCC(=O)O; Bn = c1ccc(C*)cc1
# Experiments:
# tilapia SSTR2a [1] = biological target: T1, tilapia SSTR2a (Oreochromis niloticus, UniProt I3KUD5); assay: Cre-luc reporter assay, agonist/antagonist combination plus forskolin, COS-7 cells with SSTR2a; assay type: cell-based, Nile tilapia (Oreochromis niloticus); settings: mean ± SEM
# T1 sequence (I3KUD5 1-379): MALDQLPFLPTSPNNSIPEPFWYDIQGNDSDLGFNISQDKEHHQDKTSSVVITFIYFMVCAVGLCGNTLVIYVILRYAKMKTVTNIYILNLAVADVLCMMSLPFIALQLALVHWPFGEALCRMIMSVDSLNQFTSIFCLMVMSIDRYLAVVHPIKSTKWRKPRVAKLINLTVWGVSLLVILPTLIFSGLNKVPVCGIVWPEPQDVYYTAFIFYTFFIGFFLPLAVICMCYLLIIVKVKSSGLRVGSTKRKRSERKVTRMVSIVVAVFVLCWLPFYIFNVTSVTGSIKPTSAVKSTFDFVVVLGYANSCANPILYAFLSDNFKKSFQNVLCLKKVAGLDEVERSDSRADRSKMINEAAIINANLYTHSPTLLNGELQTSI
# Excerpt: (§1) The signaling pathways of SSTRs were studied by inserting the entire coding sequence of the four receptors expressed in the pituitary (SSTR2a, SSTR3a, SSTR5b, and SSTR3b; accession nos. XP_003438730.1, XP_019215873.1, XP_003452896.1, and XP_019213185.1, respectively; Table 1 ) into pcDNA3.1 (Invitrogen) and verified by cloning and sequencing. The sequences were obtained from GenScript Biotech based on sequence information retrieved from GenBank. The procedures for transient transfection of the different cell lines and receptor stimulation have been described previously ([35], [36]). In brief, COS-7 cells were cotransfected with a luciferase reporter plasmid (Cre-luc; 3 µg) and one of the SSTRs (3 µg). As a control treatment, the […] (data not shown). […] Six hours after stimulation, the cells were analyzed using the GloMax multidetection system (Promega).
# (§2) In another set of assays, the SST receptors were exposed to increasing concentrations of cyclosomatostatin, an SSTR antagonist (0–1000 nM; each in triplicate), in combination with octreotide, an SSTR agonist (10 nM), and FSK (20 μM), or increasing concentrations of octreotide (0–1000 nM; each in triplicate) in combination with cyclosomatostatin (10 nM) and FSK (20 μM). […]
# FSH plasma levels = assay: In vivo effect on FSH plasma levels (ELISA) after IP injection; design: species or system Nile tilapia (Oreochromis niloticus); settings: female tilapia, 100 µg/kg IP, sampled 2, 4, 6, 24 h
# Description: (§3) Adult female tilapia (body weight 89.29 ± 32.93 g) were injected IP with saline, cyclosomatostatin, or octreotide (100 μg/kg; n = 8 fish per group). The fish were bled from the caudal blood vessels into heparinized syringes at 0, 2, 4, 6, and 24 h after injection. Blood was centrifuged at 3,200 rpm for 30 min at 4°C to obtain plasma samples, which were stored at -20°C until assayed. This standard protocol was used previously to test the effect of GnRH and other hypothalamic neuropeptides on circulating levels of LH, FSH, and GH in tilapia ([33], [37], [38]). Three independent experiments were performed for each treatment. Plasma levels of LH, FSH, and GH were measured by specific competitive ELISAs developed for tilapia ([39], [40]) based on recombinant ([…] or rtiGH. The […] produced against […]β ([40]), or rtGH ([39]), and […]βα ([37]) or rtGH ([39]) was used to generate a standard curve. The sensitivity of plasma measurements was 15.84 pg/ml for LH, 0.24 pg/ml for FSH, and 35.0 pg/ml for GH.
# GH plasma levels = assay: In vivo effect on GH plasma levels (ELISA) after IP injection; design: species or system Nile tilapia (Oreochromis niloticus); settings: female tilapia, 100 µg/kg IP, sampled 2, 4, 6, 24 h
# Description: as §3
# LH plasma levels = assay: In vivo effect on LH plasma levels (ELISA) after IP injection; design: species or system Nile tilapia (Oreochromis niloticus); settings: female tilapia, 100 µg/kg IP, sampled 2, 4, 6, 24 h
# Description: as §3
# tilapia SSTR3b [2] = biological target: T2, tilapia SSTR3b (Oreochromis niloticus, UniProt I3L056); assay: Cre-luc reporter assay, agonist/antagonist combination plus forskolin, COS-7 cells with SSTR3b; assay type: cell-based, Nile tilapia (Oreochromis niloticus)
# T2 sequence (I3L056 29-511): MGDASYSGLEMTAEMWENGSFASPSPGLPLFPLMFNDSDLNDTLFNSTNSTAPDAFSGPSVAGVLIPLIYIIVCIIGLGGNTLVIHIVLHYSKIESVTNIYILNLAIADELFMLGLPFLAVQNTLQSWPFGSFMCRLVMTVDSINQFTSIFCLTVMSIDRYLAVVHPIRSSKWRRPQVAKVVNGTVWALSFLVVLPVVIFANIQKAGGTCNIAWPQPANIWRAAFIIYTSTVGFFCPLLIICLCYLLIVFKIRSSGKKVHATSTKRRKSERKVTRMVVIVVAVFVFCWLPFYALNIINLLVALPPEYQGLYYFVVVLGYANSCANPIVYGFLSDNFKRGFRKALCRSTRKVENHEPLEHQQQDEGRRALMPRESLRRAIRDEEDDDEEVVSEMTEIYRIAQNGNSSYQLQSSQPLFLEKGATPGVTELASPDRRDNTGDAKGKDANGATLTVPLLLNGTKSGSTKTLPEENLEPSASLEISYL
# Excerpt: as §1
# In another set of assays, the SST receptors were exposed to increasing concentrations of cyclosomatostatin, an SSTR antagonist (0–1000 nM; each in triplicate), in combination with octreotide, an SSTR agonist (10 nM), and FSK (20 μM), or increasing concentrations of octreotide (0–1000 nM; each in triplicate) in combination with cyclosomatostatin (10 nM) and FSK (20 μM). Three individual experiments were conducted using distinct batches of COS-7 cells for each experiment and including three replicates for every concentration.
# tilapia SSTR3a [3] = biological target: T3, tilapia SSTR3a (Oreochromis niloticus, UniProt I3K8H1); assay: Cre-luc reporter assay, agonist/antagonist combination plus forskolin, COS-7 cells with SSTR3a; assay type: cell-based, Nile tilapia (Oreochromis niloticus); settings: in presence of octreotide 10 nM and FSK 20 μM, mean ± SEM, read-out: EC50 on SST-R3a (Cre-luciferase)
# T3 sequence (I3K8H1 1-482): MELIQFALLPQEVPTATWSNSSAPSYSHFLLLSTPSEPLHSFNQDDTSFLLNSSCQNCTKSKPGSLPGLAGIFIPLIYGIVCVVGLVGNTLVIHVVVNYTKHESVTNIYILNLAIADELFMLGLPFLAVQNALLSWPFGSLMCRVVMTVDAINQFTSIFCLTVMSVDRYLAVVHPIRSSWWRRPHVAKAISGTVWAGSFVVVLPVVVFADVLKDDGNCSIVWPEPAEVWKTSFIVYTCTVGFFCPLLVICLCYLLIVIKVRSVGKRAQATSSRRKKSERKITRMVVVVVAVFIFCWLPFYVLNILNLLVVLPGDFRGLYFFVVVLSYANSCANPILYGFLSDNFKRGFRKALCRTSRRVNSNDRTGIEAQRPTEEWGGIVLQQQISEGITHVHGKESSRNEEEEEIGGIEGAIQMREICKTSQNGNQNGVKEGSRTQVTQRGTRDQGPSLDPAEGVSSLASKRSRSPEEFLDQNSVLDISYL
# Excerpt: as §1, §2
# tilapia SSTR5b [4] = biological target: T4, tilapia SSTR5b (Oreochromis niloticus, UniProt I3J1C6); assay: Cre-luc reporter assay, agonist/antagonist combination plus forskolin, COS-7 cells with SSTR5b; assay type: cell-based, Nile tilapia (Oreochromis niloticus); settings: mean ± SEM
# T4 sequence (I3J1C6 1-359): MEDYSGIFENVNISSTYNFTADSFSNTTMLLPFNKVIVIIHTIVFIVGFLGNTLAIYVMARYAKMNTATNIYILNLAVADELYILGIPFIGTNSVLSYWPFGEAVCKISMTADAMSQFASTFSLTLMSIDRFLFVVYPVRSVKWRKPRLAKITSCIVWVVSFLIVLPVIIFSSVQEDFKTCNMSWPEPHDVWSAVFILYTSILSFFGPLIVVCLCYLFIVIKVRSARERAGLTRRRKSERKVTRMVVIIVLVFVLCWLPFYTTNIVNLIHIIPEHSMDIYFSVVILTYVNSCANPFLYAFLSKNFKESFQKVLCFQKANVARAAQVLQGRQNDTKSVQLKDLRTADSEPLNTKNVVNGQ
# Excerpt: as §1, §2
# tilapia SSTR2a [5] = biological target: T1, tilapia SSTR2a; assay: Cre-luc reporter assay, ligand plus forskolin, COS-7 cells transfected with SSTR2a; assay type: cell-based, Nile tilapia (Oreochromis niloticus); settings: FSK 20 μM, subnanomolar concentrations
# Excerpt: as §1
# tilapia SSTR5b [6] = biological target: T4, tilapia SSTR5b; assay: Cre-luc reporter assay, ligand plus forskolin, COS-7 cells transfected with SSTR5b; assay type: cell-based, Nile tilapia (Oreochromis niloticus); settings: FSK 20 μM, mean ± SEM, read-out: IC50 on SST-R5b (Cre-luciferase)
# Excerpt: as §1
# tilapia SSTR3a [7] = biological target: T3, tilapia SSTR3a; assay: Cre-luc reporter assay, ligand plus forskolin, COS-7 cells transfected with SSTR3a; assay type: cell-based, Nile tilapia (Oreochromis niloticus); settings: FSK 20 μM, mean ± SEM, read-out: IC50 on SST-R3a (Cre-luciferase)
# Excerpt: as §1
# human SSTR2 = tested on: human SSTR2; design: method as in PMID 8532003; settings: cited from earlier work
# SSTR5 = tested on: SSTR5; design: method as in PMID 8532003; settings: human; cited from earlier work
# SSTR3a = tested on: SSTR3a; design: method as in PMID 8532003; settings: cited from earlier work
# tilapia SSTR3b [8] = biological target: T2, tilapia SSTR3b; assay: Cre-luc reporter assay, ligand plus forskolin, COS-7 cells transfected with SSTR3b; assay type: cell-based, Nile tilapia (Oreochromis niloticus); settings: FSK 20 μM alone as backdrop
# Description: In brief, COS-7 cells were cotransfected with a luciferase reporter plasmid (Cre-luc; 3 µg) and one of the SSTRs (3 µg). […] Six hours after stimulation, the cells were analyzed using the GloMax multidetection system (Promega).
# aggressive behavior = tested on: aggressive behavior; design: method as in PMID 16887916; settings: cichlid fish, 4 mg/kg; cited from earlier work
smiles,measurement,setting,value
"C[C@@H](OCc1ccccc1)[C@@H]1NC(=O)[C@H](CCCCN)NC(=O)[C@@H](Cc2c[nH]c3ccccc23)NC(=O)[C@H](Cc2ccccc2)NC(=O)CCCCCCNC1=O [Cyclosomatostatin, cyclosomatostatin] (cyclo([Ahp]F[dW]KT(Bn)); ring closure inferred)",EC50,"tilapia SSTR2a [1]; in presence of octreotide 10 nM and FSK 20 μM, read-out: EC50 on SST-R2a (Cre-luciferase)",189 ± 4.34 nM
same,FSH plasma levels vs control,FSH plasma levels,increased
same,FSH plasma levels vs control,FSH plasma levels; listed as SSTR antagonist,remained elevated for 6 h
same,GH plasma levels vs control,GH plasma levels,the same as in the control fish
same,LH plasma levels vs control,LH plasma levels,increased
same,LH plasma levels vs control,LH plasma levels; listed as SSTR antagonist,returned to baseline after 4 h
same,EC50,"tilapia SSTR3b [2]; COS-7 cells, in presence of octreotide 10 nM and FSK 20 μM, mean ± SEM, read-out: EC50 on SST-R3b (Cre-luciferase)",46.2 ± 3.82 nM
same,Activation of SSTR3b (Cre-luc),tilapia SSTR3b [2]; in the presence of both FSK and octreotide,efficient activation
same,EC50,tilapia SSTR3a [3],0.1 ± 0.001 nM
same,EC50,"tilapia SSTR5b [4]; in presence of octreotide 10 nM and FSK 20 μM, read-out: EC50 on SST-R5b (Cre-luciferase)",2.15 ± 0.009 nM
C[C@H](N)C(=O)N1CCC[C@H]1C(=O)N[C@H]1CSSC[C@@H](C(=O)O)NC(=O)[C@H](CO)NC(=O)[C@H]([C@@H](C)O)NC(=O)[C@H](Cc2ccccc2)NC(=O)[C@H]([C@@H](C)O)NC(=O)[C@H](CCCCN)NC(=O)[C@H](Cc2c[nH]c3ccccc23)NC(=O)[C@H](Cc2ccccc2)NC(=O)[C@H](Cc2ccccc2)NC(=O)[C@H](CC(N)=O)NC(=O)[C@H](CCCCN)NC1=O [SST6] (H-APCKNFFWKTFTSC-OH; disulfide 3-14; N-terminus and C-terminus assumed),Effect on tiSSTR2a Cre-luc activity,tilapia SSTR2a [5],inhibited
same,IC50,tilapia SSTR5b [6],906.1 ± 0.5 nM
same,IC50,tilapia SSTR3a [7],3.75 ± 0.04 nM
"C[C@@H](O)[C@@H]1NC(=O)[C@H](CCCCN)NC(=O)[C@@H](Cc2c[nH]c3ccccc23)NC(=O)[C@H](Cc2ccccc2)NC(=O)[C@@H](NC(=O)[C@H](N)Cc2ccccc2)CSSC[C@@H](C(=O)N[C@H](CO)[C@@H](C)O)NC1=O [Octreotide, octreotide]",IC50,"tilapia SSTR2a [1]; in presence of cyclosomatostatin 10 nM and FSK 20 μM, read-out: IC50 on SST-R2a (Cre-luciferase)",0.81 ± 0.01 nM
same,Affinity to human SSTR2,human SSTR2,high affinity
same,Affinity to SSTR5,SSTR5,high affinity
same,FSH plasma levels vs control,FSH plasma levels,reduced
same,FSH plasma levels vs control,FSH plasma levels; listed as octreotide,decreased
same,Effect on tiSSTR2a Cre-luc activity,tilapia SSTR2a [5],inhibited
same,GH plasma levels vs control,GH plasma levels,significantly decreased
same,IC50,tilapia SSTR5b [6],906 nM and 157 nM
same,Affinity to SSTR3a,SSTR3a,moderate affinity
same,LH plasma levels vs control,LH plasma levels,remained similar to the control; also recorded: no significant effect
same,LH plasma levels vs control,LH plasma levels; listed as octreotide,remained unaffected
same,IC50,"tilapia SSTR3b [2]; COS-7 cells, in presence of cyclosomatostatin 10 nM and FSK 20 μM, mean ± SEM, read-out: IC50 on SST-R3b (Cre-luciferase)",0.35 ± 0.04 nM
same,Effect on SSTR3b Cre-luc activity,tilapia SSTR3b [8],no discernible activation
same,IC50,tilapia SSTR3a [7],0.004 nM
same,Aggressive behavior,aggressive behavior,decrease
same,IC50,"tilapia SSTR5b [4]; in presence of cyclosomatostatin 10 nM and FSK 20 μM, read-out: IC50 on SST-R5b (Cre-luciferase)",17.4 ± 3.14 nM
CC(C)C[C@@H]1NC(=O)CNC(=O)[C@H](CCCCN)NC(=O)[C@H](Cc2c[nH]c3ccccc23)NC(=O)[C@H](Cc2ccc(O)cc2)NC(=O)[C@H](Cc2ccccc2)NC(=O)[C@H](CC(N)=O)NC(=O)[C@H](CCCCN)NC(=O)[C@@H](NC(=O)CNC(=O)[C@H](C)N)CSSC[C@@H](C(=O)O)NC(=O)[C@H](CO)NC(=O)[C@H]([C@@H](C)O)NC1=O [SST3] (H-AGCKNFYWKGLTSC-OH; disulfide 3-14; N-terminus and C-terminus assumed),Effect on tiSSTR2a Cre-luc activity,tilapia SSTR2a [5],inhibited
same,IC50,tilapia SSTR5b [6],720.2 ± 0.5 nM
same,IC50,tilapia SSTR3a [7],572.9 ± 0.1 nM

# From paper PMC11224465, “Characterization of the somatostatin system in tilapia: implications for growth and reproduction” (Frontiers in Endocrinology, 2024)
